In ChEMBL document CHEMBL3046747, “Assessment of species specificity of moulting accelerating compounds in Lepidoptera: comparison of activity between Bombyx mori and Spodoptera littoralis by in vitro reporter and in vivo toxicity assays” (Pest Manag Sci, 2010):
Calls of active or inactive are those of the source. No cut-off for these calls is given here.

Tests used:
[1] = target: T1, Ecdysone receptor (Bombyx mori, UniProt P49881); experiment: Agonist activity at ecdysone receptor in Bombyx mori Bm5 cells after 24 hr by luciferase reporter gene assay; format: cell-based
T1 sequence (P49881 whole entry): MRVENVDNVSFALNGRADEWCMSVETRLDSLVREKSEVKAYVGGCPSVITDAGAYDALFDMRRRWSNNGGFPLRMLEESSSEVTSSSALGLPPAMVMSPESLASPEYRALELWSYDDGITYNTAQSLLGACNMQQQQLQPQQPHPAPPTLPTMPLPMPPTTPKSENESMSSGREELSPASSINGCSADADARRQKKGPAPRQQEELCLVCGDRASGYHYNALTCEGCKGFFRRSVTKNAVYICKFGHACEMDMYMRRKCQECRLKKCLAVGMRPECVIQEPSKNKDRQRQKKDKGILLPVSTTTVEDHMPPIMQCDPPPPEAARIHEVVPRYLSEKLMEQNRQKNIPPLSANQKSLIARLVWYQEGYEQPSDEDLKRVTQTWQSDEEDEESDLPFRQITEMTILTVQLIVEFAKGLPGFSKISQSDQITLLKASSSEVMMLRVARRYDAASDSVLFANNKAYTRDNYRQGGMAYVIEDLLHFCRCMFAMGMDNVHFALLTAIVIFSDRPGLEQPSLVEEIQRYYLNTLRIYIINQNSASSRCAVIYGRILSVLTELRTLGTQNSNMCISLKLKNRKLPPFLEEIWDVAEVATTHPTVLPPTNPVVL

[2] = target: T1, Ecdysone receptor; experiment: Antagonist activity at ecdysone receptor in Bombyx mori Bm5 cells assessed as tebufenozide-induced effect treated 24 hr before tebufenozide challenge measured after 24 hr by luciferase reporter gene assay; format: cell-based
[3] = target: T2, Ecdysone receptor (Bombyx mori) (UniProt P49881); experiment: Agonist activity at ecdysone receptor in Bombyx mori Bm5 cells after 24 hr by luciferase reporter gene assay relative to tebufenozide; format: cell-based
T2 sequence (whole entry): T1 sequence (P49881 whole entry)

[4] = target: T3, Ecdysone receptor (Spodoptera littoralis) (UniProt E3UJZ5); experiment: Agonist activity at ecdysone receptor in Spodoptera littoralis Sl2 cells after 24 hr by luciferase reporter gene assay relative to tebufenozide; format: cell-based
T3 sequence (whole entry): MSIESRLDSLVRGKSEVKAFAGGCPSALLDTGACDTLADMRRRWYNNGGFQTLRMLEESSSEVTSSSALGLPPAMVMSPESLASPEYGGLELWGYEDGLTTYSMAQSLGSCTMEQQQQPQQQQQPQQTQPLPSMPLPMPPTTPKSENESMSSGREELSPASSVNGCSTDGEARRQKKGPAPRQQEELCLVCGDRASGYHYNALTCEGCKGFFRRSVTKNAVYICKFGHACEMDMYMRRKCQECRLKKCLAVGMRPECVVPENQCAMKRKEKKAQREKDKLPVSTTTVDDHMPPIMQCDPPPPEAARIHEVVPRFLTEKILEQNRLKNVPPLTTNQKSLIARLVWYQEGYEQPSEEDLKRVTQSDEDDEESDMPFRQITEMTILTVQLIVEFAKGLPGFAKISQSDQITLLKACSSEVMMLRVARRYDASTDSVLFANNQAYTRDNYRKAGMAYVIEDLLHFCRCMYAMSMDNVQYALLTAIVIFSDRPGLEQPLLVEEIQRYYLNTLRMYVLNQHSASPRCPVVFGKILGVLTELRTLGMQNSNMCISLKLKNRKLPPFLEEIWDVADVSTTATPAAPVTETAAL

[5] = Ratio of IC50 for ecdysone receptor in Spodoptera littoralis Sl2 cells to LC50 for Spodoptera littoralis Sl2 cells
[6] = target: T4, Ecdysone receptor (Spodoptera littoralis, UniProt E3UJZ5); experiment: Agonist activity at ecdysone receptor in Spodoptera littoralis Sl2 cells after 24 hr by luciferase reporter gene assay; format: cell-based
T4 sequence (E3UJZ5 whole entry): T3 sequence (whole entry)

[7] = system: Spodoptera littoralis; experiment: Cytotoxicity against Spodoptera littoralis Sl2 cells assessed as cell viability after 24 hr by MTT assay; conditions: read-out: pLC50 (converted)
[8] = Cytotoxicity against Bombyx mori Bm5 cells assessed as cell viability after 24 hr by MTT assay; format: cell-based; conditions: read-out: pLC50 (converted)
[9] = target: T4, Ecdysone receptor; experiment: Antagonist activity at ecdysone receptor in Spodoptera littoralis Sl2 cells assessed as tebufenozide-induced effect treated 24 hr before tebufenozide challenge measured after 24 hr by luciferase reporter gene assay; format: cell-based
[10] = Ratio of IC50 for ecdysone receptor in Bombyx mori Bm5 cells to LC50 for Bombyx mori Bm5 cells
[11] = Selectivity ratio of EC50 for ecdysone receptor in Bombyx mori Bm5 cells to EC50 for ecdysone receptor in Spodoptera littoralis Sl2 cells; format: cell-based
[12] = target: T3, Ecdysone receptor (Spodoptera littoralis); experiment: Agonist activity at ecdysone receptor in Spodoptera littoralis Sl2 cells at 200 uM after 24 hr by luciferase reporter gene assay; format: cell-based
[13] = target: T2, Ecdysone receptor (Bombyx mori); experiment: Agonist activity at ecdysone receptor in Bombyx mori Bm5 cells at 200 uM after 24 hr by luciferase reporter gene assay; format: cell-based
[14] = system: Bombyx mori; experiment: Larvicidal activity against Bombyx mori assessed as mortality applied topically after 1 week; format: functional
[15] = system: Spodoptera littoralis; experiment: Larvicidal activity against Spodoptera littoralis assessed as mortality applied topically after 1 week; format: functional
[16] = Ratio of LD50 for Spodoptera littoralis to LD50 for Bombyx mori; format: functional

Row | SMILES | IC50 [2] [µM] | Efficacy [3] [%] | Efficacy [4] [%] | Ratio [5] | CC50 at 24 h [7] [µM] | CC50 at 24 h [8] [µM] | IC50 [9] [µM] | Ratio [10] | Ratio EC50 [11] | EC50 ([1]; read-out: pEC50 (converted)) [µM] | EC50 ([6]; read-out: pEC50 (converted)) [µM] | other results
1 | Cc1cc(C)cc(C(=O)C2(NC(=O)C(F)(F)F)CCCCC2)c1 | 67.6 | 6 | 17 | <0.04 | > 501 | 234 | 16.2 | 0.29 | – | – | – | pEC50 [1]: > 4; pEC50 ([6]; sl2): > 4
2 | Cc1ccc(NC2CCN(C(=O)c3ccc(Cl)cc3)c3ccccc32)cc1 (stereo not given) | 8.91 | – | – | 0.12 | 427 | 21.4 | – | 0.42 | – | – | – | –
3 | CCc1ccc(C(=O)NC(C(=O)c2cc(C)cc(C)c2)C(C)(C)C)cc1 (stereo not given) | 28.2 | 11 | 17 | <0.05 | > 501 | 38.9 | 24 | 0.72 | 0.76 | 35.5 | 46.8 | –
4 | CC1CC(Nc2ccc(F)cc2)c2cc(F)ccc2N1C(=O)c1ccc(Cl)cc1 (stereo not given) | – | 59 | 64 | – | > 501 | 162 | – | – | – | – | – | EC50 ([1]; read-out: EC50): 55 µM; EC50 ([6]; read-out: EC50): 60 µM
5 | CCOc1ccccc1C(=O)N(NC(=O)c1ccc([N+](=O)[O-])cc1)C(C)(C)C | – | – | – | – | – | – | – | – | – | – | – | Activity [12]: inactive; Activity [13]: inactive
6 | Cc1ccc(NC2CC(C)N(C(=O)c3ccc(C(C)(C)C)cc3)c3ccc(C)cc32)cc1 (stereo not given) | 24 | – | – | – | > 25.1 | 11.5 | > 25.1 | 2.09 | – | – | – | –
7 | CC1CCc2ccccc2N1C(=O)c1ccc(Cl)cc1 (stereo not given) | 47.9 | – | – | 0.53 | 102 | 69.2 | 55 | 0.69 | – | – | – | –
8 | Cc1ccc(NC2CCN(C(=O)c3ccc(Cl)cc3)CC2)cc1 | 2.24 | – | – | 0.55 | 27.5 | < 5.01 | 15.1 | – | – | – | – | –
9 | Cc1ccc(N(C(=O)c2ccc(Cl)cc2)C2CC(C)N(C(=O)c3ccc(Cl)cc3)c3ccc(C)cc32)cc1 (stereo not given) | 13.5 | – | – | <0.85 | > 15.1 | 7.08 | 12.9 | 1.91 | – | – | – | –
10 | CC(C)(C)N(NC(=O)c1ccc(Br)cc1)C(=O)c1ccccc1Cl | – | 106 | 77 | – | – | – | – | – | 0.34 | 0.151 | 0.437 | pLD50 [14]: 6.27; pLD50 [15]: <5.39; Ratio [16]: > 7.59
11 | CC(C)(C)N(NC(=O)c1ccccc1F)C(=O)c1ccccc1Cl | – | 93 | 105 | – | – | – | – | – | 0.5 | 0.145 | 0.288 | pLD50 [14]: 7.37; pLD50 [15]: <4.7; Ratio [16]: > 468
12 | Cc1ccc(NC2CC(C)N(C(=O)c3ccc(Cl)cc3)c3ccc(C)cc32)cc1 (stereo not given) | 14.8 | – | – | <0.16 | > 501 | 34.7 | 79.4 | 0.43 | – | – | – | –
13 | Cc1cc(C)cc(C(=O)N(NC(=O)c2ccc3c(c2C)CCCO3)C(C)(C)C)c1 [CHROMAFENOZIDE] | – | 98 | 103 | – | – | – | – | – | 0.38 | 0.001 | 0.00263 | pLD50 [14]: 7.55; pLD50 [15]: 7.53; Ratio [16]: 1.12
14 | Cc1ccc(NC2CC(C)N(C(=O)c3ccc(C)cc3)c3ccc(C)cc32)cc1 (stereo not given) | 26.9 | – | – | <0.15 | > 501 | 30.2 | 74.1 | 0.89 | – | – | – | –
15 | Cc1cc(C)cc(C(=O)N(NC(=O)c2ccccc2)C(C)(C)C)c1 | – | 118 | 75 | – | – | – | – | – | 0.39 | 0.2 | 0.501 | pLD50 [14]: 5.98; pLD50 [15]: <5.49; Ratio [16]: > 3.09
16 | CCOc1ccccc1C(=O)N(NC(=O)c1ccccc1)C(C)(C)C | – | – | – | – | – | – | – | – | – | – | – | Activity [12]: inactive; Activity [13]: inactive
17 | CCc1ccc(C(=O)NN(C(=O)c2cc(C)cc(C)c2Cl)C(C)(C)C)cc1 | – | 85 | 83 | – | – | – | – | – | 0.34 | 0.115 | 0.339 | pLD50 [14]: 4.94; pLD50 [15]: <4.41; Ratio [16]: > 3.39
